Usually IC50 stands for the midpoint of a concentration-inhibition curve.

For one assay, the system named is MV4-11 cells. As to the kind of experiment: MV4-11 Cell Cytotoxicity Assay. Format: cell-based. Conditions: Homo sapiens, 72 h incubation, CellTiter-Blue, read-out: IC50-MV-4-11 (NS). How it is done:
MV4-11 cells were grown in Iscove's Modified Dulbecco's Medium (IMDM) supplemented with 10% fetal bovine serum (FBS). 10,000 cells were plated per well in 96-well flat-bottom sterile culture plates with low-evaporation lids. After 24 h, inhibitors and a vehicle control (0.5% DMSO) were added and the cells were incubated for 72 h at 37° C. in 5% CO2. Inhibitors were examined in triplicate at a maximal concentration of 50 μM, followed by 1:2 dilutions in subsequent wells (25, 12.5, 6.25, 3.13, 1.56, 0.78, 0.39, 0.20 and 0.098 μM). After 72 h, the wells were treated with CellTiter-Blue® (20 μL/well), and the plates were incubated using standard cell culture conditions for 1 hour. Fluorescence was measured at 560/590 nm.
In general terms: The colour change of resazurin is a common sign of viable cells or microbes.

Assay [1] relates to normal human fibroblast (NHF) cells. Kind of assay: NHF Cell Cytotoxicity Assay. It counts as cell-based. Conditions: 72 hours, CellTiter-Blue, read-out: IC50—Pooled NHF. How it is done: Cell viability was examined a following treatment at various concentrations of inhibitor (0.097656-50 μM) using a cell Titer-Blue cell viability assay. 1×10^4 normal human fibroblast cells per well were plated in 96-well assay plates in culture medium. All cells were grown in DMEM, IMDM and RPMI-1640 were supplemented with 10% FBS. After 24 hours, test compounds and vehicle controls were added to appropriate wells so the final volume was 100 μl in each well. The cells were cultured for the desired test exposure period (72 hours) at 37° C. and 5% CO2. The assay plates were removed from 37° C. incubator and 20 μL/well of CellTiter-Blue® Reagent was added. […] For each sample well, value was normalized between the DMSO control and the highest concentration in case of plateau and converted into a percentage. In the absence of plateau, minimum lecture is obtained from a different sample within the same experiment. For each concentration, the four replicates are averaged, and standard deviation calculated. Data was fitted to a log(inhibitor) vs response curve with variable slope model using Microsoft Excel, obtaining IC50 and Hill slope variables.
A person skilled in the art would appreciate that a higher IC50 value in this NHF assay can indicate lower off-target effects.

For the compound `CCOc1cc(C(=O)O)c(F)cc1N(Cc1cc(C2CC2)cc(C2CC2)c1)C(=O)CN(Cc1ccccc1C#N)S(=O)(=O)c1cc(F)c(F)c(F)c1F` [Compound 18, 4-[[2-[(2-cyanophenyl)methyl-(2,3,4,5-tetrafluorophenyl)sulfonyl-amino]acetyl]-[(3,5-dicyclopropylphenyl)methyl]amino]-5-ethoxy-2-fluoro-benzoic acid], the IC50 is 0.4 to 1.2 µM with MV4-11 cells and ≥ 24 µM in assay [1].

Regarding `CCOc1cc(C(=O)O)ccc1N(Cc1cc(C2CC2)cc(C2CC2)c1)C(=O)CN(Cc1ccccc1F)S(=O)(=O)c1cc(F)c(F)c(F)c1F` [Compound 11, 4-[(3,5-dicyclopropylphenyl)methyl-[2-[(2-fluorophenyl)methyl-(2,3,4,5-tetrafluorophenyl)sulfonyl-amino]acetyl]amino]-3-ethoxy-benzoic acid], in the assay with MV4-11 cells, the IC50 was 1.2 to 6 µM.

As to `CCOc1cc(C(=O)O)c(F)cc1N(Cc1cc(C2CC2)cc(C2CC2)c1)C(=O)CN(Cc1ccccc1C#N)S(=O)(=O)c1c(F)cc(F)c(F)c1F` [Compound 19, 4-[[2-[(2-cyanophenyl)methyl-(2,3,4,6-tetrafluorophenyl)sulfonyl-amino]acetyl]-[(3,5-dicyclopropylphenyl)methyl]amino]-5-ethoxy-2-fluoro-benzoic acid], in the assay with MV4-11 cells, the half-maximal inhibitory concentration (IC50) was in the range of 1.2 to 6 µM.

Take `CCOc1cc(C(=O)O)ccc1N(Cc1cc(C2CC2)cc(C(C)(C)C)c1)C(=O)CN(Cc1ccccc1C#N)S(=O)(=O)c1c(F)cc(F)c(F)c1F` [Compound 25, 4-[(3-tert-butyl-5-cyclopropyl-phenyl)methyl-[2-[(2-cyanophenyl)methyl-(2,3,4,6-tetrafluorophenyl)sulfonyl-amino]acetyl]amino]-3-ethoxy-benzoic acid]: the IC50 in the assay on MV4-11 cells fell in the range of 1.2 to 6 µM.

Turning to `CCOc1cc(C(=O)O)ccc1N(Cc1cc(C2CC2)cc(N2CCCC2)c1)C(=O)CN(Cc1ccccc1C#N)S(=O)(=O)c1c(Br)cc(F)c(F)c1F` [Compound 36, 4-[[2-[(6-bromo-2,3,4-trifluoro-phenyl)sulfonyl-[(2-cyanophenyl)methyl]amino]acetyl]-[(3-cyclopropyl-5-pyrrolidin-1-yl-phenyl)methyl]amino]-3-ethoxy-benzoic acid], the IC50 is 1.2 to 6 µM in the assay with MV4-11 cells and ≥ 24 µM in assay [1].

`CCOc1cc(C(=O)O)ccc1N(Cc1cc(C2CC2)cc(C2CC2)c1)C(=O)CN(Cc1cccc(F)c1F)S(=O)(=O)c1cc(F)c(F)c(F)c1F` [Compound 9, 4-[(3,5-dicyclopropylphenyl)methyl-[2-[(2,3-difluorophenyl)methyl-(2,3,4,5-tetrafluorophenyl)sulfonyl-amino]acetyl]amino]-3-ethoxy-benzoic acid]: the IC50 in the assay with MV4-11 cells fell in the range of 1.2 to 6 µM.

As for `CCOc1cc(C(=O)O)ccc1N(Cc1cc(C2CC2)cc(N2CCCC2)c1)C(=O)CN(Cc1ccccc1C#N)S(=O)(=O)c1c(F)cc(F)c(F)c1F` [Compound 23, 4-[[2-[(2-cyanophenyl)methyl-(2,3,4,6-tetrafluorophenyl)sulfonyl-amino]acetyl]-[(3-cyclopropyl-5-pyrrolidin-1-yl-phenyl)methyl]amino]-3-ethoxy-benzoic acid], the IC50 in the assay with MV4-11 cells fell in the range of 1.2 to 6 µM.

For the compound `O=C(O)c1ccc(N(Cc2cc(C3CC3)cc(C3CC3)c2)C(=O)CN(Cc2ccccc2Cl)S(=O)(=O)c2c(F)c(F)c(F)c(F)c2Cl)cc1O` [Compound 76, 4-(2-((2-chloro-N-(2-chlorobenzyl)-3,4,5,6-tetrafluorophenyl)sulfonamido)-N-(3,5-dicyclopropylbenzyl)acetamido)-2-hydroxybenzoic acid], the IC50 with MV4-11 cells was 1.2 to 6 µM; in assay [1] it was ≥ 24 µM.

With `CCOc1cc(C(=O)O)ccc1N(Cc1cc(OC(C)C)cc(C2CC2)c1)C(=O)CN(Cc1ccccc1C#N)S(=O)(=O)c1cc(F)c(F)c(F)c1F` [Compound 32, 4-[[2-[(2-cyanophenyl)methyl-(2,3,4,5-tetrafluorophenyl)sulfonyl-amino]acetyl]-[(3-cyclopropyl-5-isopropoxy-phenyl)methyl]amino]-3-ethoxy-benzoic acid], the IC50 in the assay with MV4-11 cells is 1.2 to 6 µM.

Consider `COc1cc(C(=O)O)ccc1N(Cc1cc(C2CC2)cc(C(C)(C)C)c1)C(=O)CN(Cc1cnccc1C(F)(F)F)S(=O)(=O)c1c(F)c(F)cc(F)c1F` [Compound 46, 4-(N-(3-(tert-butyl)-5-cyclopropylbenzyl)-2-((2,3,5,6-tetrafluoro-N-((4-(trifluoromethyl)pyridin-3-yl)methyl)phenyl)sulfonamido)acetamido)-3-methoxy benzoic acid], for which, in the assay with MV4-11 cells, the IC50 is > 6 µM.

As for `CCOc1cc(C(=O)O)ccc1N(Cc1cccc(OC(C)C)c1)C(=O)CN(Cc1ccccc1C#N)S(=O)(=O)c1cc(F)c(F)c(F)c1F` [Compound 33, 4-[[2-[(2-cyanophenyl)methyl-(2,3,4,5-tetrafluorophenyl)sulfonyl-amino]acetyl]-[(3-isopropoxyphenyl)methyl]amino]-3-ethoxy-benzoic acid], the IC50 in the assay on MV4-11 cells was 1.2 to 6 µM.

For `CCOc1cc(C(=O)O)ccc1N(Cc1cc(C2CC2)cc(C2CC2)c1)C(=O)CN(Cc1ccc(F)cc1Cl)S(=O)(=O)c1c(F)cc(F)c(F)c1F` [Compound 15, 4-[[2-[(2-chloro-4-fluoro-phenyl)methyl-(2,3,4,6-tetrafluorophenyl)sulfonyl-amino]acetyl]-[(3,5-dicyclopropylphenyl)methyl]amino]-3-ethoxy-benzoic acid], the IC50 with MV4-11 cells is 1.2 to 6 µM.

As to `CCOc1cc(C(=O)O)ccc1N(Cc1cc(C2CC2)cc(C2CC2)c1)C(=O)CNS(=O)(=O)c1cc(F)c(F)c(F)c1F` [Compound 47, 4-(N-(3,5-dicyclopropylbenzyl)-2-((2,3,4,5-tetrafluorophenyl)sulfonamido)acetamido)-3-ethoxy benzoic acid], the IC50 with MV4-11 cells was > 6 µM.

Take `CCOc1cc(C(=O)O)ccc1N(Cc1cc(C2CC2)cc(N2CCCC2)c1)C(=O)CN(Cc1ccccc1C#N)S(=O)(=O)c1cc(F)c(F)c(F)c1F` [Compound 22, 4-[[2-[(2-cyanophenyl)methyl-(2,3,4,5-tetrafluorophenyl)sulfonyl-amino]acetyl]-[(3-cyclopropyl-5-pyrrolidin-1-yl-phenyl)methyl]amino]-3-ethoxy-benzoic acid]: the IC50 in the assay with MV4-11 cells lay in the range of 0.4 to 1.2 µM.

For `CCOc1cc(C(=O)O)ccc1N(Cc1cc(C2CC2)cc(C2CC2)c1)C(=O)CN(Cc1ccccc1C(F)(F)F)S(=O)(=O)c1c(Br)cc(F)c(F)c1F` [Compound 21, 4-[[2-[(6-bromo-2,3,4-trifluoro-phenyl)sulfonyl-[[2-(trifluoromethyl)phenyl]methyl]amino]acetyl]-[(3,5-dicyclopropylphenyl)methyl]amino]-3-ethoxy-benzoic acid], the IC50 in the assay with MV4-11 cells was 1.2 to 6 µM; in assay [1] it was ≥ 24 µM.

As to `CCOc1cc(C(=O)O)ccc1N(Cc1cc(C2CC2)cc(C2CC2)c1)C(=O)CN(Cc1ccccc1C(F)(F)F)S(=O)(=O)c1c(F)cc(F)c(F)c1F` [Compound 14, 4-[(3,5-dicyclopropylphenyl)methyl-[2-[(2,3,4,6-tetrafluorophenyl)sulfonyl-[[2-(trifluoromethyl)phenyl]methyl]amino]acetyl]amino]-3-ethoxy-benzoic acid], the IC50 with MV4-11 cells lay in the range of 1.2 to 6 µM.

In the case of `CCOc1cc(C(=O)O)ccc1N(Cc1cc(C2CC2)cc(C2CC2)c1)C(=O)CN(Cc1c(F)cc(F)cc1F)S(=O)(=O)c1cc(F)c(F)c(F)c1F` [Compound 12, 4-[(3,5-dicyclopropylphenyl)methyl-[2-[(2,3,4,5-tetrafluorophenyl)sulfonyl-[(2,4,6-trifluorophenyl)methyl]amino]acetyl]amino]-3-ethoxy-benzoic acid], the IC50 in the assay on MV4-11 cells was 0.4 to 1.2 µM.

For `CCOc1cc(C(=O)O)ccc1NC(=O)CN(Cc1ccccc1C#N)S(=O)(=O)c1cc(F)c(F)c(F)c1F` [Compound 48, 4-(2-((N-(2-cyanobenzyl)-2,3,4,5-tetrafluorophenyl)sulfonamido)acetamido)-3-ethoxy benzoic acid], the IC50 in the assay with MV4-11 cells was 1.2 to 6 µM.

`O=C(O)c1ccc(N(Cc2cc(C3CC3)cc(C3CC3)c2)C(=O)CN(Cc2ccccc2Cl)S(=O)(=O)c2c(F)c(F)c(F)c(F)c2Cl)c(O)c1` [Compound 73, 4-(2-((2-chloro-N-(2-chlorobenzyl)-3,4,5,6-tetrafluorophenyl)sulfonamido)-N-(3,5-dicyclopropylbenzyl)acetamido)-3-hydroxybenzoic acid]: the concentration for half-maximal inhibition (IC50) in the assay on MV4-11 cells is 0.4 to 1.2 µM; in assay [1], ≥ 24 µM.

Consider `CCOc1cc(C(=O)O)ccc1N(Cc1cccc(N2CCCC2)c1)C(=O)CN(Cc1ccccc1C#N)S(=O)(=O)c1cc(F)c(F)c(F)c1F` [Compound 26, 4-[[2-[(2-cyanophenyl)methyl-(2,3,4,5-tetrafluorophenyl)sulfonyl-amino]acetyl]-[(3-pyrrolidin-1-ylphenyl)methyl]amino]-3-ethoxy-benzoic acid], for which the IC50 with MV4-11 cells lay in the range of 0.4 to 1.2 µM.

Values taken from patent US20230265055A1, “STAT INIHIBITORY COMPOUNDS AND COMPOSITIONS” (JANPIX LIMITED, priority 2020, published 2023).
